Test results: patent publication US20220354108A1, “PRESERVATION METHODS USING TREHALOSE WITH OTHER CRYOPROTECTANTS BEING ABSENT FROM THE CRYOPRESERVATION PROTOCOL” (TISSUE TESTING TECHNOLOGIES LLC, priority 2021, published 2022)
Like-named read-outs stand apart in the source and are kept apart here.

Experiments:
Type in all cases: cell-based
[1] = tested on: bone marrow-derived human mesenchymal stem cells (hMSCs); settings: for hMSC viability compared with DMSO control groups: 0.2 M trehalose
Procedure: Experiments were performed using bone marrow-derived human mesenchymal stem cells (hMSCs) from various commercial sources Human Bone-Marrow Derived Mesenchymal Stem/Stromal Cells (hBM-MSCs) were isolated from normal healthy adult donors (purchased from a commercial source (such as Rooster-Bio) along with the appropriate growth media). Cells were grown according to the manufacturer's instructions).
Prior to the development of the methodology of the present disclosure, the inventors of the instant application previously assessed a nanotechnology for intracellular trehalose delivery developed by Professor Xiaoming He, University of Maryland (Zhang et al., Cold-Responsive Nanoparticle Enables Intracellular Delivery and Rapid Release of Trehalose for Organic-Solvent-Free Cryopreservation, Nano Lett. 2019, 19, 9051-9061; Rao et al., Nanoparticle-Mediated Intracellular Delivery Enables Cryopreservation of Human Adipose-Derived Stem Cells Using Trehalose as the Sole Cryoprotectant, ACS Appl Mater Interfaces, 2015, 7(8), 5017-5028), that they had shown promoted cryopreservation of adipose tissue derived hMSCs, for bone marrow-derived MSCs. Unfortunately, the trehalose nanotechnology failed during these studies, probably due to instability of the trehalose nanoparticles during storage and transport from the University of Maryland to Charleston, S.C. […] Encouraged by these unanticipated results, the range of exogenous trehalose employed was expanded to 0.2-0.8M and compared −1, −5 and −15° C./minute cooling rates.
In the preliminary experiments, the DMSO controls were clearly the best at the 1° C./minute cooling rate (65.3±2.7% of untreated controls), however, the best overall outcome was the 0.2M trehalose group at the −15° C./minute cooling rate (78.9±3.5% of untreated controls).

[2] = tested on: Pan T-cells; assay: Pan T-cell metabolic activity after cryopreservation (resazurin dye); settings: −15° C./minute
Procedure: (§1) Experiments were performed to assess 0.2-0.8M concentrations of extracellular trehalose combined with several concentrations of 0-5% DMSO and compared with the positive control, Cryostor-5, that contains 5% DMSO.
(§2) Pan T-cells were grown and expanded. The T-cells were then harvested and counted. Approximately 10×10^6 cells were used for each sample. Cells were resuspended in the various combinations of DMSO and trehalose in 1 mL and allowed to equilibrate on ice for 20 minutes. Samples were cooled in a CRF at −15° C./minute to −80° C. then moved to liquid nitrogen vapor phase storage for approximately 10 days. After storage, samples were thawed rapidly in a 37° C. water bath, transferred to a 15 mL centrifuge tube and diluted with 10 mL culture medium. An aliquot was taken for cell counting. […] Cells were allowed to recover for 60 minutes in a 37° C. incubator before viability was measured using resazurin dye (300 μl). The cells were left for 3 hours at 37° C. before the plate was read using a fluorescent microplate reader at an excitation wavelength of 544 nm and an emission wavelength of 590 nm. […]
(§3) In FIGS. 3A and 3B, cell survival after cryopreservation at −15° C./minute using combinations of DMSO and trehalose. […] Cell counts, live and dead, (A) as well as metabolic activity (B) was measured. […]

[3] = tested on: Pan T-cells; assay: Pan T-cell survival after cryopreservation, live and dead cell counts (trypan blue); settings: trehalose alone, no DMSO; −15° C./minute
Procedure: as §1, §2, §3

SMILES	hMSC viability after cryopreservation [1]	cell metabolic activity, difference from control Cryostor-5 ([2]; 0% DMSO with 0.2M trehalose, p>0.05)	cell metabolic activity, difference from control Cryostor-5 ([2]; 0% DMSO, all trehalose groups except 0.2M)	protection during cryopreservation compared with control Cryostor-5 [3]	hMSC viability compared with DMSO control groups ([1]; −5° C./minute cooling rate)	hMSC viability compared with DMSO control groups ([1]; −15° C./minute cooling rate)	MSC survival of cryopreservation ([1]; trehalose present only extracellularly (used as negative control))
C[S+](C)[O-] [DMSO, dimethyl sulfoxide, reference compound]	65.3±2.7 % of untreated controls	–	–	–	–	–	–
OC[C@H]1O[C@H](O[C@H]2O[C@H](CO)[C@@H](O)[C@H](O)[C@H]2O)[C@H](O)[C@@H](O)[C@@H]1O [trehalose]	78.9±3.5 % of untreated controls	significant difference	no statistically significant differences	adequate protection similar to the control	same or higher viability than the DMSO control groups	same or higher viability than the DMSO control groups	survived cryopreservation quite well
